“And” between values parts separate entries of the source, which are not always exact repeats. Equal values may be shown once. “Also recorded” adds a separate entry of the source.
What was measured:
[1] = biological target: T1, recombinant human MAO-A (Homo sapiens, UniProt P21397); experiment: MAO-A inhibition assay; type: biochemical
T1 sequence (P21397 1-527): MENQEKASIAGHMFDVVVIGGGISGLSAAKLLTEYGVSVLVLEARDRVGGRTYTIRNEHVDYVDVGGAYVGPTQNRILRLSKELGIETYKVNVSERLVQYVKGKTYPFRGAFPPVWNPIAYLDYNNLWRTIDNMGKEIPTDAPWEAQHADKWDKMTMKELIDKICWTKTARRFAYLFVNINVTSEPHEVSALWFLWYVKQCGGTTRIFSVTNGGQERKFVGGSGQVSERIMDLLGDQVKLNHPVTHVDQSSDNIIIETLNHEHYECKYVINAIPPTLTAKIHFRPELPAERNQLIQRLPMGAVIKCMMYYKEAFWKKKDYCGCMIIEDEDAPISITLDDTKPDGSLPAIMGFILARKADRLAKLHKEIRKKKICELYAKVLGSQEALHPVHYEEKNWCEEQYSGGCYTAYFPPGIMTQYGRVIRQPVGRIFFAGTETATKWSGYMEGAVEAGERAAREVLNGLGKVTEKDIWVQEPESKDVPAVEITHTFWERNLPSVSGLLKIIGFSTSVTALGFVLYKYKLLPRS

[2] = biological target: T2, MAO-B (Homo sapiens, UniProt P27338); experiment: MAO-B inhibition assay; type: biochemical; conditions: read-out: residual activity at 10 μM (%) MAO-B
T2 sequence (P27338 1-520): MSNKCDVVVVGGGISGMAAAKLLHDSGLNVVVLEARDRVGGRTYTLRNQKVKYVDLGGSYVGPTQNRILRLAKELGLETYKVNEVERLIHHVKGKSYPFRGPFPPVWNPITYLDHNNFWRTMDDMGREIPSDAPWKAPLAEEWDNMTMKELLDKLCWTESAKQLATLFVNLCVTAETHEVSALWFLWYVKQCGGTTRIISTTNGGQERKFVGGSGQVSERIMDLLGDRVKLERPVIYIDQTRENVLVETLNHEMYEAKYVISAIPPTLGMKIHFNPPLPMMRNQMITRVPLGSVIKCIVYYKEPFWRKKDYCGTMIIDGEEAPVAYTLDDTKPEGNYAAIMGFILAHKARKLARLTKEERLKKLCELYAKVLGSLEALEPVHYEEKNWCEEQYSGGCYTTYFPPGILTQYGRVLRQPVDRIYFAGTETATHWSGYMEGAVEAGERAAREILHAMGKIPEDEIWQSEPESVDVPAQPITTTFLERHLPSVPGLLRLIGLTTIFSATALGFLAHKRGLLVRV

[3] = biological target: AChE (Electrophorus electricus, UniProt O42275); experiment: AChE inhibition assay; type: biochemical
[4] = biological target: T3, BChE (Equus caballus, UniProt P81908); experiment: BChE inhibition assay; type: biochemical, equine
[5] = biological target: BACE-1 (Homo sapiens, UniProt P56817); experiment: BACE-1 activity detection kit; type: biochemical; conditions: read-out: residual activity at 10 μM (%) BACE-1
[6] = biological target: T2, MAO-B; experiment: Kinetics of MAO-B inhibition; type: biochemical
[7] = biological target: T3, BChE; experiment: Kinetics of BChE inhibition; type: biochemical, equine
[8] = biological target: T2, MAO-B; experiment: Reversibility of MAO-B inhibition by dialysis; type: biochemical
[9] = biological target: T3, BChE; experiment: Reversibility of BChE inhibition by dialysis; type: biochemical, equine
[10] = In vitro toxicity by MTT on Vero cells; conditions: African green monkey, Vero cells (African green monkey kidney epithelial cells), Vero cell viability, up to 100 μg/mL, 48 h, MTT
[11] = system: Vero cells; experiment: In vitro toxicity by MTT on Vero cells
[12] = Lineweaver–Burk and secondary plots

T3 sequence (P81908 whole entry): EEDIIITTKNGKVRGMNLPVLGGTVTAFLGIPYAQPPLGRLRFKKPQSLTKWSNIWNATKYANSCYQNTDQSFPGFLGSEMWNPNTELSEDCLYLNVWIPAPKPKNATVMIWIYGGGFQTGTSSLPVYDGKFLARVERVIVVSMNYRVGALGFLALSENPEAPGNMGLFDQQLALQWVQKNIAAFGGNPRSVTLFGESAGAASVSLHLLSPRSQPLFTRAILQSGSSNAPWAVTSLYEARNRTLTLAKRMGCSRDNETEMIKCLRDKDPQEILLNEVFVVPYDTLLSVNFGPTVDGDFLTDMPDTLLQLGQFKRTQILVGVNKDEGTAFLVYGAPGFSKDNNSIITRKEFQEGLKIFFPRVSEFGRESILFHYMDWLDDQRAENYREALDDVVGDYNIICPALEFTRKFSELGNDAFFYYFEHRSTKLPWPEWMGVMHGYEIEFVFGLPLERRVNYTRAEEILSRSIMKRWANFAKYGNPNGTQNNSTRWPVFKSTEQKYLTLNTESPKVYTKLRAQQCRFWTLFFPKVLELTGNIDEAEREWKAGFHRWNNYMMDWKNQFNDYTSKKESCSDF
Sequence of AChE (O42275 24-633): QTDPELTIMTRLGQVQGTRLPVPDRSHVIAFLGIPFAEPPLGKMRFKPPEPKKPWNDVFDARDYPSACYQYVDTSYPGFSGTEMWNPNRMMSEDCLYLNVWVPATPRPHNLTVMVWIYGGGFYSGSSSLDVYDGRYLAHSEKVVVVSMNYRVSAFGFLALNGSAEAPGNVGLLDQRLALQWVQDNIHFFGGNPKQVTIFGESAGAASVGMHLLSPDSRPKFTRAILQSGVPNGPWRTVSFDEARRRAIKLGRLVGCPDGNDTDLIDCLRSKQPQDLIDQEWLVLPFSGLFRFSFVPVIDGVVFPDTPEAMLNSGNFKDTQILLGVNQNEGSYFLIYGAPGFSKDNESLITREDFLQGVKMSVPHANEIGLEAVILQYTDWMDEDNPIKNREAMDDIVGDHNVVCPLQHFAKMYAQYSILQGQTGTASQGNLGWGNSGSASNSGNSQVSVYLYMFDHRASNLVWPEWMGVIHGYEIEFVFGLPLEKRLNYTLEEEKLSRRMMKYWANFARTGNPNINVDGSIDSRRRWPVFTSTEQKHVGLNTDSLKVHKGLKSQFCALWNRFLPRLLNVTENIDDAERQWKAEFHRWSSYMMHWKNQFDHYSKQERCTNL
Sequence of BACE-1 (P56817 46-501): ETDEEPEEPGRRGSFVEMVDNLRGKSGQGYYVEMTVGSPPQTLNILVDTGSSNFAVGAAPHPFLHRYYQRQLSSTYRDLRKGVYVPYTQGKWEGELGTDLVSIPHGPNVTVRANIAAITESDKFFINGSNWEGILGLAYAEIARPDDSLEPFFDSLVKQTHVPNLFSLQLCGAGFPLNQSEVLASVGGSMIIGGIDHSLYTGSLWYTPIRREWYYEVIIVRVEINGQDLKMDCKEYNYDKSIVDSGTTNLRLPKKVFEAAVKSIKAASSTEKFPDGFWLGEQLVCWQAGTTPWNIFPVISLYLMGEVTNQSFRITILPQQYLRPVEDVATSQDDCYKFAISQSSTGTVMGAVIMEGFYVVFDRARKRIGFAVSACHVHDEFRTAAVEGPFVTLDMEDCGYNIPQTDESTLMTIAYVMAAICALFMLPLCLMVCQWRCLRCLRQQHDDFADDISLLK

O=C(/C=C/c1ccccc1Cl)c1cc2ccccc2oc1=O [CC2, 3-[(2E)-3-(2-chlorophenyl)prop-2-enoyl]-2H-1-benzopyran-2-one]
IC50 [1]: > 40 µM
remaining activity at 10 µM ([1]; read-out: residual activity at 10 μM (%) MAO-A): 76.6 ± 1.8%
remaining activity at 10 µM [2]: 19.8 ± 5.9%
IC50 ([3]; IC50 (μM) AChE, means ± standard errors, reference compounds after preincubation for 30 min with enzymes): 40.1 ± 0.12 µM
remaining activity at 10 µM ([3]; read-out: residual activity at 10 μM (%) AChE, 10 μM): 69.4 ± 3.6%
IC50 [4]: 7 ± 0.02 µM
residual activity at 10 μM (%) BChE ([4]; 10 μM): 43.9 ± 3.7%
remaining activity at 10 µM ([4]; read-out: residual activity at 10 μM (%) BChE, 10 μM): < 50%
remaining activity at 10 µM [5]: 61.1 ± 1%
Ki [6]: 530 ± 40 nM
type of MAO-B inhibition [6, 12]: competitive
Ki [7]: 2840 ± 90 nM
type of BChE inhibition [7, 12]: competitive
reversibility of MAO-B inhibition [8]: reversible
reversibility of BChE inhibition [9]: reversible
viability at 48 h, 100 μg/mL [10]: ~70%
IC50 ([11]; Chlorocebus sabaeus, Vero, 48 h, read-out: IC50 Vero cell viability): 142 µg/mL and 456 µM
Vero cell viability ([11]; up to 100 μg/mL, 48 h, MTT): > 70%
toxicity for Vero cells ([11]; up to a concentration of 100 μg/mL): nontoxic; also recorded: not toxic
